Data as given in publication PMC6043372 (Journal of medicinal chemistry, 2018).
Read-outs that look alike come from different tables or passages of the source.

Tested on: Mtb H37Rv
Assay type: cell-based, Mycobacterium tuberculosis H37Rv

SMILES | spontaneous resistance mutation frequency (Mtb H37Rv, 12 at 4× and 8× MIC90) | spontaneous resistance mutation frequency
CCCCCCCCn1cc(CN2CCCCCC2)c2c(F)cccc21 [Compound 71, 3-(azepan-1-ylmethyl)-4-fluoro-1-octyl-1H indole] | < 10^−9 /CFU | –
CCCCCCCCn1cc(CN2CCC3(CC2)OCCCO3)c2ccc(OC)cc21 [Compound 12] | – | 10^−8 /CFU
